Measured values from publication PMC11336009 (GeroScience, 2024).
“Also recorded” adds a separate entry of the source.

Test system: 6-OHDA unilateral medial forebrain bundle lesioned rat
Experiment: Tyrosine hydroxylase (TH) immunoreactivity in striatum and SNc of 6-OHDA lesioned rats
Format: in vivo
Protocol: treatment was initiated either prior to or after 6-OHDA lesioning (early and delayed treatment, respectively) as follows. (1) Early treatment: […] An estimated dose for a 250-g rat under this treatment was 10 mg/kg/day. (2) Delayed treatment: […] An estimated, clinically relevant, dose for a 250 g rat under this treatment was thus 30 mg/kg/day. Specifically for drug admixture into diet, drug was solubilized in 100% ETOH that was then added to the 16.2 g of food chow. Thereafter, the ETOH was evaporated off. […] Animals were weighed twice weekly and the amount of drug added to the chow was modified accordingly to maintain the daily required dose. […] Specifically, the 10 mg/kg oral daily drug dose in our rat studies is equivalent to the routine human daily oral dose (100 mg in a 65 kg human) of these […] used in T2DM, and the 30 mg/kg rat dose is equivalent to a threefold higher dose that is well-tolerated in humans. Following the exact same protocol described in Yin et al., 2012 [34] and Li et al., 2009 [35], anesthetized rats were injected i.c.v. with PF-00734,200 (15.4 nmole in 20 μL sterile physiological saline (n = 6)) or vehicle (sterile physiological saline, 20 μL (n = 8)) using a 25 μL Hamilton syringe at 10 min prior to 6-OHDA lesioning (Supplemental Fig. 2). The coordinates for the i.c.v. injection were 0.8 mm posterior to bregma, 1.2 mm lateral (Left) to midline, and 3.7 mm ventral to the dural surface. The rate of infusion (4 μL/min) was adjusted by a microprocessor-controlled injector mounted to the stereotaxic frame (UMP4; World Precision Instruments, Sarasota, FL, USA). The needle was slowly removed after 2 min upon completion of the injection. Following the exact same protocol described in Yin et al., 2012 [34] and Harvey et al. 2004 [36], anesthetized rats were subjected to a 6-OHDA unilateral medial forebrain bundle lesion. Briefly, 6-OHDA (2.27 μg/μL × 5 μL in 0.9% NaCl containing 0.2 mg/ml ascorbic acid) was unilaterally injected into the medial forebrain bundle (-4.4 mm AP, 1.2 mm ML relative to bregma and 8.4 mm below skull) over 4 min through a syringe pump (Micro 4, WPI, Sarasota, FL), as approved under National Health Research Institutes, Taiwan, Protocol # 102,068-A; 102,102-A. Following this procedure, all animals were monitored daily for adverse signs of health for 1 week (in line with the approved protocols). BrdU and TH localization was determined by immunohistochemistry. Serial sections of the entire brain were cut at 30 μm thickness by cryostat. One series from every sixth section was stained for TH. To control for staining variability, specimens from all experimental groups were included in every batch and reacted together in a net well tray under the same conditions. Sections were rinsed in 0.1 M phosphate buffer (PB), blocked with 4% bovine serum albumin (BSA) and 0.3% Triton x-100 in 0.1 M PB. Sections were then incubated in a primary antibody solution mouse monoclonal anti-TH diluted in 4% BSA and 0.3% Triton x-100 in 0.1 M PB, concentration 1:100 (Chemicon, Temecula, CA) and polyclonal anti-BrdU (1:500, Millipore, MA, USA) for 17-19 h at 4 °C. Sections were then rinsed in 0.1 M PB and incubated in secondary antibodies for 1 h, followed by incubation for 1 h with avidin-biotin-horseradish peroxidase complex. Thereafter, sections were mounted on slides, and coverslipped. TH and BrdU immunoreactivity was examined under a fluorescent microscope. Sections were incubated without primary antibody as a control and observers were blinded as to treatment groups. TH immunoreactivity and BrdU cell number in striatum were averaged from 3 brain sections with visible anterior commissure in each animal. TH immunoreactivity in SNc was measured every 6th Sect. (30 μm per each section) throughout the extent of midbrain. […] volume was analyzed using Cavalieri's method.

[1] = delayed treatment 30 mg/kg daily p.o. from day 7, day 21
[2] = early treatment 10 mg/kg daily p.o.
[3] = early treatment 10 mg/kg daily p.o., normalized to non-lesioned side, day 35

| SMILES | TH cell density in the lesioned SNc vs vehicle [1] | TH pixel density in the lesioned striatum vs vehicle [1] | TH immunoreactivity in the lesioned side SNc vs vehicle [2] | TH immunoreactivity in the non-lesioned side SNc [2] | TH pixel density in the lesioned striatum vs vehicle [3] | TH immunohistochemistry in striatum and SNc vs vehicle (i.c.v. 15.4 nmole 10 min prior to 6-OHDA lesioning) |
| --- | --- | --- | --- | --- | --- | --- |
| O=C([C@@H]1C[C@H](N2CCN(c3ncccn3)CC2)CN1)N1CCC(F)(F)C1 [PF-00734,200, Gosogliptin] | significantly increased | a trend, but not a statistically significant | significantly increased | did not alter | significantly increased | lack of neuroprotection; also recorded: no different from similarly vehicle-treated animals |
| N[C@@H](CC(=O)N1CCn2c(nnc2C(F)(F)F)C1)Cc1cc(F)c(F)cc1F [Sitagliptin] | significantly increased | significantly increased | significantly increased | did not alter | significantly increased |  |
